pIC50: −log10 of the molar value.
Experiments:
[1] = tested on: Trichophyton mentagrophytes; assay: Antifungal activity against Trichophyton mentagrophytes by broth microdilution method; assay type: functional, organism-based; conditions: for pIC50: read-out: IC50; for IC50: read-out: pIC50 (converted)
Staphylococcus aureus = assay: Antibacterial activity against Staphylococcus aureus ATCC 25923 by broth microdilution method; assay type: functional, organism-based; conditions: for pIC50: read-out: IC50; for IC50: read-out: pIC50 (converted)
Candida parapsilosis = assay: Antifungal activity against Candida parapsilosis ATCC 22019 by broth microdilution method; assay type: functional; conditions: Lodderomyces parapsilosis
Candida albicans = assay: Antifungal activity against Candida albicans by broth microdilution method; assay type: functional, organism-based; conditions: for pIC50: read-out: IC50; for IC50: read-out: pIC50 (converted)
Aspergillus fumigatus = assay: Antifungal activity against Aspergillus fumigatus by broth microdilution method; assay type: functional
Cryptococcus neoformans = assay: Antifungal activity against Cryptococcus neoformans by broth microdilution method; assay type: functional
Sporothrix schenckii = assay: Antifungal activity against Sporothrix schenckii by broth microdilution method; assay type: functional, organism-based; conditions: for pIC50: read-out: IC50; for IC50: read-out: pIC50 (converted)
Escherichia coli = assay: Antibacterial activity against Escherichia coli ATCC 9637 by broth microdilution method; assay type: functional, organism-based; conditions: for pIC50: read-out: IC50; for IC50: read-out: pIC50 (converted)

Compound	MIC [1] [µM]	pIC50 [1]	IC50 [1] [µM]	MIC (Candida parapsilosis) [µM]	MIC (Candida albicans) [µM]	pIC50 (Candida albicans)	IC50 (Candida albicans) [µM]	MIC (Aspergillus fumigatus) [µM]	MIC (Cryptococcus neoformans) [µM]	MIC (Sporothrix schenckii) [µM]	pIC50 (Sporothrix schenckii)	IC50 (Sporothrix schenckii) [µM]	MIC (Escherichia coli) [µM]	pIC50 (Escherichia coli)	IC50 (Escherichia coli) [µM]	MIC (Staphylococcus aureus) [µM]	pIC50 (Staphylococcus aureus)	IC50 (Staphylococcus aureus) [µM]
O=S(=O)(OC(CNCc1ccccc1)c1ccccc1)c1ccc(F)cc1 (stereo unspecified)	< 50	4.99	10.2	> 50	< 50	4.38	41.9	> 50	> 50	–	–	–	–	–	–	< 50	4.65	22.6
O=S(=O)(OC(CNCc1ccccc1)c1ccccc1)c1cccc(Cl)c1Cl (stereo unspecified)	< 50	5.23	5.89	> 50	–	–	–	> 50	> 50	< 50	4.81	15.6	–	–	–	–	–	–
Cc1ccc(C(CN(Cc2ccccc2)C(=O)OC(C)(C)C)OS(=O)(=O)c2c(Cl)cccc2Cl)cc1 (stereo unspecified)	< 50	5.36	4.4	> 50	–	–	–	> 50	> 50	–	–	–	–	–	–	–	–	–
CC(C)(C)OC(=O)N(Cc1ccccc1)CC(OS(=O)(=O)c1ccc([N+](=O)[O-])cc1[N+](=O)[O-])c1ccccc1 (stereo unspecified)	–	–	–	> 50	< 50	6.27	–	> 50	> 50	–	–	–	< 50	4.63	23.3	–	–	–
Cc1ccc(C(CN(Cc2ccccc2)C(=O)OC(C)(C)C)OS(=O)(=O)c2cccc(Cl)c2Cl)cc1 (stereo unspecified)	–	–	–	> 50	–	–	–	> 50	> 50	< 50	4.97	10.7	–	–	–	–	–	–
O=S(=O)(OC(CNCc1ccccc1)c1ccccc1)c1c(Cl)cccc1Cl (stereo unspecified)	< 50	4.35	44.8	> 50	< 50	4.74	18	> 50	> 50	< 50	4.92	12	–	–	–	< 50	4.93	11.6
CC(C)(C)OC(=O)N(Cc1ccc(Cl)c(Cl)c1)CC(OS(=O)(=O)c1ccc(F)cc1)c1ccccc1 (stereo unspecified)	–	–	–	> 50	–	–	–	> 50	> 50	< 50	4.36	43.3	–	–	–	< 50	4.82	15.3
COc1ccc(C(CN(Cc2ccccc2)C(=O)OC(C)(C)C)OS(=O)(=O)c2ccc(F)cc2)cc1 (stereo unspecified)	< 50	4.64	22.9	> 50	–	–	–	> 50	> 50	–	–	–	–	–	–	–	–	–
COc1ccc(C(CN(Cc2ccccc2)C(=O)OC(C)(C)C)OS(=O)(=O)c2c(Cl)cccc2Cl)cc1 (stereo unspecified)	< 50	4.87	13.6	> 50	–	–	–	> 50	> 50	–	–	–	–	–	–	–	–	–
CC(C)(C)OC(=O)N(Cc1ccccc1)CC(OS(=O)(=O)c1ccccc1C(F)(F)F)c1ccccc1 (stereo unspecified)	< 50	4.61	24.4	> 50	< 50	5.19	6.44	> 50	> 50	< 50	4.55	28.4	–	–	–	–	–	–

More lines, main results first:

MIC [1] [µM]	pIC50 [1]	IC50 [1] [µM]	MIC (Candida parapsilosis) [µM]	MIC (Candida albicans) [µM]	pIC50 (Candida albicans)	IC50 (Candida albicans) [µM]	MIC (Aspergillus fumigatus) [µM]	MIC (Cryptococcus neoformans) [µM]	MIC (Sporothrix schenckii) [µM]	pIC50 (Sporothrix schenckii)	IC50 (Sporothrix schenckii) [µM]	MIC (Escherichia coli) [µM]	pIC50 (Escherichia coli)	IC50 (Escherichia coli) [µM]	Compound	MIC (Staphylococcus aureus) [µM]	pIC50 (Staphylococcus aureus)	IC50 (Staphylococcus aureus) [µM]
–	–	–	> 50	–	–	–	> 50	> 50	< 50	4.94	11.4	< 50	5.50	3.13	CC(C)(C)OC(=O)N(Cc1ccccc1)CC(OS(=O)(=O)c1c(Cl)cccc1Cl)c1ccccc1 (stereo unspecified)	–	–	–
< 50	5.65	2.24	> 50	–	–	–	> 50	> 50	< 50	5.20	6.24	–	–	–	COc1ccc(CN(CC(OS(=O)(=O)c2cccc([N+](=O)[O-])c2)c2ccccc2)C(=O)OC(C)(C)C)cc1 (stereo unspecified)	–	–	–
–	–	–	> 50	–	–	–	> 50	> 50	–	–	–	–	–	–	CC(C)(C)OC(=O)N(Cc1ccc(F)cc1)CC(OS(=O)(=O)c1c(Cl)cccc1Cl)c1ccccc1 (stereo unspecified)	< 50	4.90	12.5
< 50	5.56	2.76	> 50	–	–	–	> 50	> 50	< 50	4.64	23.1	–	–	–	COc1ccc(CN(CC(OS(=O)(=O)c2ccc(F)cc2)c2ccccc2)C(=O)OC(C)(C)C)cc1 (stereo unspecified)	–	–	–
< 50	4.90	12.6	> 50	< 50	4.38	41.6	> 50	> 50	< 50	4.51	31.2	–	–	–	Cc1cc(C)cc(S(=O)(=O)OC(CN(Cc2ccccc2)C(=O)OC(C)(C)C)c2ccccc2)c1 (stereo unspecified)	–	–	–
< 50	5.21	6.11	> 50	< 50	4.90	12.5	> 50	> 50	< 50	4.33	46.4	–	–	–	CC(C)c1cc(C(C)C)c(S(=O)(=O)OC(CN(Cc2ccccc2)C(=O)OC(C)(C)C)c2ccccc2)c(C(C)C)c1 (stereo unspecified)	–	–	–

— ChEMBL document CHEMBL1909528, “Synthesis and 2D QSAR of O-sulphonated β-aminols derivatives as novel antifungal and antibacterial agents” (Bioorg Med Chem Lett, 2011)
